One assay has as its target cyclophilin A (Homo sapiens, UniProt P62937). Description: Cyclophilin A TR-FRET competitive binding assay. The following applies: competition with CsA-Cy5 for His-tagged CypA, two-hour incubation. As for the experimental part:
Cyclophilin A TR-FRET Competitive Binding Assay
Inhibitor potency was measured using a competitive binding assay with a time-resolved fluorescence resonance energy transfer (TR-FRET) readout. […] An IC50 value was calculated using a four-parameter logistic fit.
(In general: TR-FRET usually uses a lanthanide donor and a delayed reading to cut background.)

Assay [1] deals with Huh-7 HCV replicon cells (1b replicon). Put plainly: anti-HCV activity in Huh-7 cell line harboring a HCV replicon (luciferase readout). It counts as cell-based. The following applies: Hepatitis C virus; for EC50: Huh-7, 72 h, inhibition of viral replication, Huh-7 HCV replicon cells, 3 days, read-out: EC50; for inhibition at 1 µM: Huh-7, read-out: Replicon 1b % inhibition at 1 μM, 1b replicon, 1 μM compound.

cyclophilin A, sequence (P62937 whole entry, species assumed): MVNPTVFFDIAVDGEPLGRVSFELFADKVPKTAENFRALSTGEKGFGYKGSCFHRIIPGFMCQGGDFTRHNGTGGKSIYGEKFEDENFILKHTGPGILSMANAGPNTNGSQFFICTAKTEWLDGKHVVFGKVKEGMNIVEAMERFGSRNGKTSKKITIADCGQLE

The term IC50 denotes the concentration that gives 50% inhibition. Higher therefore signals weaker potency in that assay. The term EC50 denotes the midpoint of the concentration-response curve. For orientation: inhibition means the drop in the measured response relative to a control, in per cent. As for `C[C@@H]1NC(=O)[C@H](CC(F)F)OC(=O)C(C)(C)/C=C/c2ccc3ccc(nc3c2)[C@@H](C)NC(=O)[C@@H]2CCCN(N2)C1=O` [Compound 62], at cyclophilin A, the IC50 was less than 0.1 µM. In addition, in assay [1], the EC50 is less than 1 µM and the inhibition at 1 µM amounted to 84%.

On cyclophilin A, `C[C@@H]1NC(=O)[C@H](C2CCCC2)OC(=O)C2(/C=C/c3ccc4ccc(nc4c3)[C@@H](C)NC(=O)[C@@H]3CCCN(N3)C1=O)COCOC2` [Compound 63] showed an IC50 of less than 0.1 µM. In assay [1], the half-maximal effective concentration (EC50) is less than 1 µM and the inhibition at 1 µM is 100%.

The compound `CC[C@H](C)[C@@H]1OC(=O)C2(/C=C/c3ccc4ccc(nc4c3)[C@@H](C)NC(=O)[C@@H]3CCCN(N3)C(=O)[C@H](C)NC1=O)COCOC2` [Compound 65] showed a concentration for half-maximal inhibition (IC50) at cyclophilin A of less than 0.1 µM. Moreover, in assay [1], the concentration for a half-maximal effect (EC50) is less than 1 µM and the inhibition at 1 µM stood at 99%.

As for `C[C@@H]1NC(=O)[C@H](C2CC2)OC(=O)C2(/C=C/c3ccc4ccc(nc4c3)[C@@H](C)NC(=O)[C@@H]3CCCN(N3)C1=O)CCC(O)CC2` (stereo partly drawn) [Compound 66], the half-maximal inhibitory concentration (IC50) on cyclophilin A is less than 0.1 µM. Further, in assay [1], the EC50 is less than 1 µM and the inhibition at 1 µM was 97%.

`C[C@@H]1NC(=O)[C@H](C2CCOCC2)OC(=O)C(C)(C)/C=C/c2ccc3ccc(nc3c2)[C@@H](C)NC(=O)[C@@H]2CCCN(N2)C1=O` [Compound 67] came in with a 50% inhibitory concentration (IC50) at cyclophilin A of 0.101 to 1 µM. In addition, in assay [1], the EC50 was less than 1 µM and the inhibition at 1 µM was determined as 67%.

`CC(F)[C@@H]1OC(=O)C(C)(C)/C=C/c2ccc3ccc(nc3c2)[C@@H](C)NC(=O)[C@@H]2CCCN(N2)C(=O)[C@H](C)NC1=O` (stereo partly drawn) [Compound 68] showed an IC50 at cyclophilin A of less than 0.1 µM. In assay [1], the EC50 was less than 1 µM and the inhibition at 1 µM came out at 93%.

On cyclophilin A, `C[C@@H]1NC(=O)[C@H](C(C)(C)C)OC(=O)C(C)(C)/C=C/c2ccc3ccc(nc3c2)[C@@H](C)NC(=O)[C@@H]2CCCN(N2)C1=O` [Compound 70] yielded a concentration for half-maximal inhibition (IC50) of 1 to 10 µM. For the same compound, in assay [1], the EC50 is less than 1 µM and the inhibition at 1 µM was 57%.

`CC([C@@H]1OC(=O)C(C)(C)/C=C/c2ccc3ccc(nc3c2)[C@@H](C)NC(=O)[C@@H]2CCCN(N2)C(=O)[C@H](C)NC1=O)C(F)(F)F` (stereo partly drawn) [Compound 71]: the IC50 on cyclophilin A is less than 0.1 µM. In addition, in assay [1], the concentration for a half-maximal effect (EC50) was less than 1 µM and the inhibition at 1 µM worked out at 96%.

On to `C[C@@H]1NC(=O)[C@H](C(C)(C)F)OC(=O)C2(/C=C/c3ccc4ccc(nc4c3)[C@@H](C)NC(=O)[C@@H]3CCCN(N3)C1=O)COCOC2` [Compound 72], for which, on cyclophilin A, the IC50 is 1 to 10 µM. For the same compound, in assay [1], the EC50 fell in the range of 1.1 to 10 µM and the inhibition at 1 µM is -6%.

In the case of `CC(C)[C@@H]1OC(=O)C2(/C=C/c3ccc4ccc(nc4c3)[C@@H](C)NC(=O)[C@@H]3CCCN(N3)C(=O)[C@H](C)NC1=O)CCOC2` (stereo partly drawn) [Compound 73], on cyclophilin A, the IC50 is less than 0.1 µM. In addition, in assay [1], the 50% effective concentration (EC50) was less than 1 µM and the inhibition at 1 µM was determined as 97%.

`C[C@@H]1NC(=O)[C@H](C2CC2)OC(=O)C(C)(C)/C=C/c2ccc3ccc(nc3c2)[C@@H](C)NC(=O)[C@@H]2CCCN(N2)C1=O` [Compound 78] yielded an IC50 at cyclophilin A of less than 0.1 µM. In assay [1], the EC50 is less than 1 µM and the inhibition at 1 µM worked out at 99%.

Turning to `C[C@@H]1NC(=O)[C@@H](C2CC2)OC(=O)C(C)(C)/C=C/c2ccc3ccc(nc3c2)[C@@H](C)NC(=O)[C@@H]2CCCN(N2)C1=O` [Compound 79], the half-maximal inhibitory concentration (IC50) at cyclophilin A is 1 to 10 µM. Moreover, in assay [1], the concentration giving a half-maximal response (EC50) was 1.1 to 10 µM and the inhibition at 1 µM worked out at 3%.

With `CC(C)C(=O)O[C@H]1CC[C@@]2(/C=C/c3ccc4ccc(nc4c3)[C@@H](C)NC(=O)[C@@H]3CCCN(N3)C(=O)[C@H](C)NC(=O)[C@H](C(C)C)OC2=O)CC1` [Compound 80], the IC50 on cyclophilin A was less than 0.1 µM. Also, in assay [1], the concentration giving a half-maximal response (EC50) is less than 1 µM and the inhibition at 1 µM worked out at 99%.

For the compound `CC(C)C(=O)O[C@H]1CC[C@]2(/C=C/c3ccc4ccc(nc4c3)[C@@H](C)NC(=O)[C@@H]3CCCN(N3)C(=O)[C@H](C)NC(=O)[C@H](C(C)C)OC2=O)CC1` [Compound 81], the half-maximal inhibitory concentration (IC50) at cyclophilin A is less than 0.1 µM. Also, in assay [1], the EC50 was less than 1 µM and the inhibition at 1 µM came to 100%.

Regarding `CCCC(=O)O[C@H]1CC[C@]2(/C=C/c3ccc4ccc(nc4c3)[C@@H](C)NC(=O)[C@@H]3CCCN(N3)C(=O)[C@H](C)NC(=O)[C@H](C(C)C)OC2=O)CC1` [Compound 82], the IC50 on cyclophilin A was less than 0.1 µM. Further, in assay [1], the 50% effective concentration (EC50) was less than 1 µM and the inhibition at 1 µM worked out at 99%.

On cyclophilin A, `CON=C1CCC2(/C=C/c3ccc4ccc(nc4c3)[C@@H](C)NC(=O)[C@@H]3CCCN(N3)C(=O)[C@H](C)NC(=O)[C@H](C(C)C)OC2=O)CC1` (stereo partly drawn) [Compound 83] had a half-inhibitory concentration (IC50) of less than 0.1 µM. In assay [1], the EC50 was less than 1 µM and the inhibition at 1 µM was found to be 100%.

In turn, `CC(C)[C@@H]1OC(=O)C2(/C=C/c3ccc4ccc(nc4c3)[C@@H](C)NC(=O)[C@@H]3CCCN(N3)C(=O)[C@H](C)NC1=O)CCN(C(=O)OC(C)(C)C)CC2` [Compound 84] came in with an IC50 at cyclophilin A of 1 to 10 µM. In assay [1], the EC50 fell in the range of 1.1 to 10 µM and the inhibition at 1 µM is 10%.

As to `CC(C)[C@@H]1OC(=O)C2(/C=C/c3ccc4ccc(nc4c3)[C@@H](C)NC(=O)[C@@H]3CCCN(N3)C(=O)[C@H](C)NC1=O)CCN(S(C)(=O)=O)CC2` [Compound 85], at cyclophilin A, the IC50 is less than 0.1 µM. Besides, in assay [1], the half-maximal effective concentration (EC50) is less than 1 µM and the inhibition at 1 µM stood at 98%.

At cyclophilin A, `C[C@@H]1NC(=O)[C@H]([C@@H](C)OC(C)(C)C)OC(=O)C(C)(C)/C=C/c2ccc3ccc(nc3c2)[C@@H](C)NC(=O)[C@@H]2CCCN(N2)C1=O` [Compound 86] had an IC50 of 0.101 to 1 µM. Further, in assay [1], the EC50 was less than 1 µM and the inhibition at 1 µM was 93%.

Consider `C[C@@H]1NC(=O)[C@H]([C@@H](C)O)OC(=O)C(C)(C)/C=C/c2ccc3ccc(nc3c2)[C@@H](C)NC(=O)[C@@H]2CCCN(N2)C1=O` [Compound 87], for which the half-inhibitory concentration (IC50) at cyclophilin A was less than 0.1 µM. In addition, in assay [1], the 50% effective concentration (EC50) was less than 1 µM and the inhibition at 1 µM is 61%.

With `CC(C)[C@@H]1OC(=O)C2(/C=C/c3ccc4ccc(nc4c3)[C@@H](C)NC(=O)[C@@H]3CCCN(N3)C(=O)[C@H](C)NC1=O)CCC(C)(O)CC2` (stereo partly drawn) [Compound 89], the concentration for half-maximal inhibition (IC50) on cyclophilin A is less than 0.1 µM. In assay [1], the half-maximal effective concentration (EC50) was less than 1 µM and the inhibition at 1 µM turned out to be 82%.

As to `CC(C)[C@@H]1OC(=O)[C@@]2(/C=C/c3ccc4ccc(nc4c3)[C@@H](C)NC(=O)[C@@H]3CCCN(N3)C(=O)[C@H](C)NC1=O)CCOC(C)(C)C2` [Compound 90], the IC50 at cyclophilin A was less than 0.1 µM. For the same compound, in assay [1], the concentration for a half-maximal effect (EC50) was less than 1 µM and the inhibition at 1 µM stood at 99%.

As to `CC(C)[C@@H]1OC(=O)[C@]2(/C=C/c3ccc4ccc(nc4c3)[C@@H](C)NC(=O)[C@@H]3CCCN(N3)C(=O)[C@H](C)NC1=O)CCOC(C)(C)C2` [Compound 91], the IC50 at cyclophilin A was less than 0.1 µM. Moreover, in assay [1], the EC50 is less than 1 µM and the inhibition at 1 µM worked out at 100%.

With `C[C@@H]1NC(=O)[C@H](C2CC2)OC(=O)C2(/C=C/c3ccc4ccc(nc4c3)[C@@H](C)NC(=O)[C@@H]3CCCN(N3)C1=O)COCCOC2` [Compound 93], the IC50 at cyclophilin A was less than 0.1 µM. Further, in assay [1], the EC50 is less than 1 µM and the inhibition at 1 µM was 98%.

As for `C[C@@H]1NC(=O)[C@H](C2COC2)OC(=O)C(C)(C)/C=C/c2ccc3ccc(nc3c2)[C@@H](C)NC(=O)[C@@H]2CCCN(N2)C1=O` [Compound 95], the concentration for half-maximal inhibition (IC50) on cyclophilin A is less than 0.1 µM. In addition, in assay [1], the 50% effective concentration (EC50) is less than 1 µM and the inhibition at 1 µM is 88%.

The record behind these values is patent US9642889B2, “Macrocyclic inhibitors of Flaviviridae viruses” (Selcia Limited, priority 2012, dated 2017).
